# Entries after “also recorded” stand apart in the source; their conditions may differ. Where two headings read alike, the source gives them in different places.
# Columns and labels:
# [1] = cited from earlier work
# [2] = test system: Gli1-dependent luciferase expression in Shh-LIGHTII cells; details: cited from earlier work
# [3] = Stability towards acidic conditions; assay type: physicochemical; details: pH approximately 1 (MeOH, 1 M HCl), 1H NMR compared with pure compound
# Method: Finally, we studied the stability of all newly synthesized compounds towards acidic conditions. Therefore, they were exposed to a pH of approximately 1 (MeOH, 1 M HCl) for 24 h. After evaporation of all volatiles, ^1H NMR spectra were acquired and compared to the initially obtained spectra of the pure compounds. […] This experiment emphasizes the importance of the C-21 methyl group for the stability of exo-cyclopamine derivatives. All synthesized compounds, the number of steps required, and the respective overall yield starting from 3 or 14, as well as their biological activity and stability under acidic conditions are summarized in Table 1.
# [4] = test system: Gli1-dependent luciferase expression in Shh-LIGHTII cells; assay: Gli1-reporter gene assay (luciferase) in Shh-LIGHTII cells; assay type: cell-based, mouse; details: for IC50: Mus musculus, Shh Light II, 48 h, read-out: Potency in Gli-assay (IC50); for Activity in Gli1-dependent luciferase assay (in words): concentration range 0.01 μM to 10 μM
# Method: Next, we examined all synthesized compounds for their ability to inhibit the Gli1-dependent luciferase expression in Shh-LIGHTII cells, a clonal mouse fibroblast cell line which stably incorporates a Gli-dependent firefly luciferase reporter and a constitutive Renilla luciferase reporter. The compounds were tested in a concentration range from 0.01 μM to 10 μM.
# Data were obtained from three independent experiments and represent the mean ± standard deviation.
# The interference of the exo-cyclopamine derivatives with the hedgehog signaling pathway was tested in an established reporter gene assay based on the inhibition of the target gene Gli1. Shh-LIGHTII cells (ATCC CRL-2795, LGC, Wesel, Germany) represent a clonal mouse fibroblast cell line (NIH 3T3), which stably incorporates a Gli-dependent firefly luciferase reporter and a constitutive Renilla luciferase reporter. They were grown in […] cell culture flasks at 37 °C in a humid atmosphere with 5% CO2. Cell growth medium […] (Dulbecco's Modified Eagle's Medium, high glucose, sodium pyruvate, w/o glutamine), ZeocinTM Selection Reagent and Geneticin® Selection Antibiotic (G418 sulfate) were obtained from Invitrogen. Additive L-glutamin and trypsin were obtained from PAA. VerseneTM chelating agent was obtained from Gibco, bovine fetal serum (FBS) from Sigma. The cell freeze medium contained 5% DMSO in complete growth medium. The cell number was counted using a Neubauer-Zählkammer (Hemocytometer).
# (§1) […] (high glucose, sodium pyruvate, w/o glutamine) supplemented with 0.5% FBS, 4 mM L-glutamin and 50 mM HEPES buffer (4-(2-hydroxyethyl)-1-piperazine ethanesulfonic acid) (pH 7.4) was used as incubation medium. The measurement of reporter gene and constitutive Renilla luminescence was performed with the Dual Luciferase® reporter system according to the manufacturer’s instructions (Promega, Mannheim, Germany) using a GENios reader (TECAN, Crailsheim, Germany).
# Luciferase reporter assay.
# For performing the assay, Shh-LIGHTII cells were grown to reach 80% confluence, washed twice with Versene, detached with 2 mL trypsin for not longer than 2 min and resuspended in 8 mL of growth medium. After centrifugation for 3 min, the supernatant was removed and the cell pellet dissolved in approximately 10 mL of growth medium. Finally, 20,000 to 100,000 cells per well were cultured in a 24-well plate for 48 h. For exposure to the derivatives the growth medium was removed and the cells were exposed to the compound in 500 μL/well incubation medium for 48 h. Stock solutions were prepared in EtOH and introduced in different concentrations into the incubation medium to reach a final solvent concentration of 0.05%. Due to the assay principle, Shh-LIGHTII cells had to be co-exposed to 100 nM of SAG (Smoothened agonist) for determining the inhibitory activity of the compounds. A SAG stock solution was prepared in EtOH and introduced into the medium. The final EtOH concentration – introduced by SAG and the test compound – was 0.1%. As a positive control a 100 nM SAG solution in incubation medium (0.1% EtOH) was used, negative controls were treated with EtOH […]
# Performing the luciferase measurement.
# After 48 h of incubation cells were washed with 500 μL PBS (phosphate buffered saline, w Mg/Ca, Invitrogen) and afterwards incubated for 15 min with 100 μL 1 x passive lysis buffer on a shaker. The lysed cells together with lysis solution were transferred into 1.5 mL reaction tubes, centrifuged for 1 min at 4 °C and kept on ice until further use. At first, the blank of luminescence of a 96-well plate (flat bottom, white, Greiner bio-one) was recorded. Then, 100 μL luciferase assay reagent and 10 μL cell supernatant were mixed per well and the luminescence of firefly luciferase was recorded. Addition of 100 μL Stop&Glo® reagent permitted the recording
# [5] = test system: Shh-LIGHTII cells; assay: Cytotoxicity observed in the reporter gene assay; assay type: cell-based, mouse; details: in the concentration range tested (0.01 μM to 10 μM)
# Method: Given the negative test results of compounds 8 and 9 it becomes evident that the F-ring is necessary for bioactivity. The piperidine moiety provides a rather rigidly placed nitrogen atom. Nevertheless, a pyrrolidine as in compound 23 still provides the correct orientation of the nitrogen atom.
# The interference of the exo-cyclopamine derivatives with the hedgehog signaling pathway was tested in an established reporter gene assay based on the inhibition of the target gene Gli1. […] The cell number was counted using a Neubauer-Zählkammer (Hemocytometer).
# as §1, with “Germany). […]” for “Germany).”
# After 48 h of incubation cells were washed with 500 μL PBS (phosphate buffered saline, w Mg/Ca, Invitrogen) and afterwards incubated for 15 min with 100 μL 1 x passive lysis buffer on a shaker. […] At first, the blank of luminescence of a 96-well plate (flat bottom, white, Greiner bio-one) was recorded. […]
# [6] = read-out: Potency in Gli-assay, previously synthesized and biologically evaluated
# [7] = Shh-LIGHTII cells, co-exposed to 100 nM SAG, tested 0.01 μM to 10 μM, mean ± standard deviation of three independent experiments
Compound,"Stability towards acid (pH ~1, 24 h) [3]","IC50 [4, 7] [µM]",Activity in Gli1-dependent luciferase assay (in words) [4],also measured
"CC1=C2C[C@H]3[C@@H](CC=C4C[C@@H](O)CC[C@@]43C)[C@@H]2CC[C@]12O[C@@H]1C[C@H](C)CN[C@H]1[C@H]2C [Compound 1, cyclopamine]",,,,"pH at which decomposition occurs ([1]; low metabolic stability (decomposition)): < 3; Stability towards acid (pH ~1, 24 h) ([1]; previously synthesized and evaluated compounds): decomp.; IC50 ([2]; read-out: Potency (IC50) as inhibitor of hedgehog signaling, introductory statement, no assay details printed): ~5 µM; IC50 [2, 6]: 5 µM"
"C=C1[C@@H]2C[C@H]3[C@@H](CC=C4C[C@@H](O)CC[C@@]43C)[C@@H]2CC[C@]12O[C@@H]1C[C@H](C)CN[C@H]1[C@H]2C [Compound 2, exo-cyclopamine]",,,,"IC50 [2, 6]: 0.5 µM"
"C=C1C2CC3C(CC=C4CC(O)CCC43C)C2CCC12OC1CC(C)CNC1C2C (stereo not drawn) [Compound 5, 25-epi-exo-cyclopamine]",remained unchanged; also recorded: stable,3.29 ± 0.31,,
"C=C1CNC2C(C1)OC1(CCC3C(CC4C3CC=C3CC(O)CCC34C)C1=C)C2C (stereo not drawn) [Compound 6, bis-exo-cyclopamine]",,0.2 ± 0.01,,Potency relative to parent compound (cyclopamine) ([4]; surpasses potency of parent compound): 25 fold
C=C1[C@@H]2C[C@H]3[C@@H](CC=C4C[C@@H](O)CC[C@@]43C)[C@@H]2CC[C@]12OC[C@@H](NCC)[C@H]2C [Compound 8],remained unchanged; also recorded: stable,> 10,no activity,Cytotoxicity [5]: induced cytotoxicity
C=C1[C@@H]2C[C@H]3[C@@H](CC=C4C[C@@H](O)CC[C@@]43C)[C@@H]2CC[C@]12OC[C@@H](N)[C@H]2C [Compound 9],remained unchanged; also recorded: stable,> 10,no activity,Cytotoxicity [5]: induced cytotoxicity
"C=C1CN[C@H]2C[C@@]3(CC[C@H]4[C@@H]5CC=C6C[C@@H](O)CC[C@]6(C)[C@H]5C[C@H]4C3=C)O[C@@H]2C1 [Compound 19, 20-demethyl-bis-exo-cyclopamine]",showed decomposition; also recorded: decomp,,no activity; also recorded: completely inactive,IC50 [4]: > 10 µM
"C=C1C2CC3C(CC=C4CC(O)CCC43C)C2CCC12CC1NCCC1O2 (stereo not drawn) [Compound 23, F-nor-20,25-bis-demethyl-exo-cyclopamine]",showed decomposition; also recorded: decomp,6.4 ± 0.9,,

# Source: publication PMC3869244, “Cyclopamine analogs bearing exocyclic methylenes are highly potent and acid-stable inhibitors of hedgehog signaling” (Beilstein Journal of Organic Chemistry, 2013)
